Reference: patent US20090047655A1, “Method Of Screening Candidate Drug” (priority 2004, published 2009)
Read-outs that look alike come from different tables or passages of the source.

How the values were obtained:
[1] = in vivo; details: mouse, in vivo
Source text: (§1) As for the chimeric mice, chimeric mice produced by Hiroshima Prefectural Institute of Industrial Science and Technology or PhoenixBio Co., Ltd. were used. To be more specific, mice in which human hepatocytes were engrafted and proliferated in the mouse liver were produced by transplanting human hepatocytes (IVT079, purchased from In Vitro Technology Inc., or BD51, purchased from BD Gentest Inc.) into the spleen of uPA(+/+)/SCID mice, which are mice having hepatic impairment and immunodeficiency. Mice in which 70% or more of the mouse liver had been replaced with human hepatocytes (high-replacement chimeric mice) and low-replacement chimeric mice in which although human hepatocytes had been transplanted, the replacement ratio was almost 0%, or untransplanted mice (mice with no replacement) were used (3 mice in each group). Further, as a control, 3 uPA(−/−)/SCID mice were used.
(§2) The concentration for administration of tolbutamide which is a standard drug for CYP2C9 was […]., and 4.175 mg of tolbutamide was weighed out and suspended in 1 ml of a CMC liquid in an agate mortar, and a 4.175 mg/ml suspension which is 5 times as high as the concentration for administration was prepared.
(§3) To the high-replacement chimeric mice, low-replacement chimeric mice (or mice with no replacement) and uPA(−/−)/SCID mice (3 mice in each group), 5 compounds were simultaneously administered orally by gavage or intravenously. The blood was collected from the tail vein of each mouse in an amount of 15 μl each at 0.25 (only intravenous administration), 0.5, 1, 2, 4 (only oral administration) and 8 hours after administration. Then, the blood was centrifuged at 3,500 rpm for 5 minutes, and the serum (supernatant) was collected and stored in a freezer at −30° C.
(§4) The serum samples were transported to Sumika Chemical Analysis Service, Ltd. while keeping it in dry ice, and subjected to measurement by LC-MS/MS according to the following procedure.
(§5) With regard to a liquid chromatograph, SIL-HTC and LC-10A series (Shimadzu Corporation) were used, and as a column, Synergi 4μ Polar-RP 80A, 150 mm (length)×2.00 mm (inner diameter), 4 μm (Phenomenex Inc.) was used at 30° C. As a mobile phase, methanol/a 10 mmol/l ammonium acetate solution/acetic acid (700/300/2, v/v/v) was used, and a flow rate was set at 0.2 ml/min. An injection volume was set at 2 μl, a measurement time was set at 10 min, and the temperature of an autosampler was set at 4° C. As a mass spectrometer, Tandem Mass Spectrometer API 4000 (Applied Biosystems/MDS SCIEX Inc.) was used. As API interface, Turbo V (ESI probe) was used, and as Ionization mode, Positive ion detection mode was used.
To Eppendorf tubes in which 5 μl of samples to be measured (serum) were contained, 100 μl of methanol was added, and 10 μl of 1 μg/ml of I.S. standard solution was added thereto, and then, the mixtures were thoroughly mixed by an ultrasonic treatment and a vortex mixer. The resulting mixtures were centrifuged (15,000 rpm, 5 min, room temperature), and the resulting supernatants were subjected to centrifugal filtration (10,000 rpm, 2 min, room temperature) with a filter, and the resulting filtrates were used as injection samples for LC-MS/MS.
(§6) The determined values of the drug concentration in the serum were calculated from the peak area ratio obtained by the LC-MS/MS measurement of the samples for addition calibration curve. […] From the graphs, the peak serum concentration (Cmax), half-life (t1/2), area under the curve (AUC), bioavailability and clearance were analyzed, and pharmacokinetics in human was predicted.

[2] = uPA(+/+)/SCID, mouse, in vivo
Source text: as §1, §2, §3, §4, §5
To Eppendorf tubes in which 5 μl of samples to be measured (serum) were contained, 100 μl of methanol was added, and 10 μl of 1 μg/ml of I.S. standard solution was added thereto, and then, the mixtures were thoroughly mixed by an ultrasonic treatment and a vortex mixer. […]
as §6

[3] = tested on: CYP2D6; test: in vivo; details: uPA(+/+)/SCID, mouse, po
Description: (§7) As for the chimeric mice, chimeric mice produced in PhoenixBio Co., Ltd. were used. To be more specific, 3 mice in which human hepatocytes were engrafted and proliferated in the mouse liver were produced by transplanting human hepatocytes (BD51, purchased from BD Gentist Inc.) into the spleen of uPA(+/+)/SCID mice, which are mice having hepatic impairment and immunodeficiency.
(§8) Paroxetine was dissolved in Milli-Q water (using a bath-type ultrasonic device) and prepared to give a final concentration of 6 mg/ml. The prepared drug was intraperitoneally administered to the mice at a dose of 5 μl/g b.w. (30 mg/kg b.w./day).
(§9) To the high-replacement chimeric mice, paroxetine was intraperitoneally administered for 3 days. Then, in the same manner as in Example 1, 5 compounds were simultaneously administered orally by gavage, the blood was collected over time, and the serum was stored.
(§10) The determination and analysis of drugs in the serum were carried out in the same manner as in Example 1.
(§11) The determined values of the drug concentration in the serum were calculated from the peak area ratio obtained by the LC-MS/MS measurement of the samples for addition calibration curve. […] From the graphs, Cmax, t1/2 and AUC were analyzed.

[4] = target: T1, CYP3A4 (Homo sapiens, UniProt P08684); test: Inhibition of metabolic activity by paroxetine in high-replacement chimeric mouse (marker erythromycin); type: in vivo; details: paroxetine 30 mg/kg b.w./day i.p. for 3 days, donor BD51
T1 construct: human hepatocytes were engrafted and proliferated in the mouse liver; host or cells: human donor hepatocytes BD51 engrafted in the liver of uPA(+/+)/SCID mice (high-replacement chimeric mice, PhoenixBio)
Description: as §7, §8, §9, §10, §11

[5] = target: CYP1A2 (Homo sapiens, UniProt P05177); test: Inhibition of metabolic activity by paroxetine in high-replacement chimeric mouse (marker caffeine); type: in vivo; details: paroxetine 30 mg/kg b.w./day i.p. for 3 days, donor BD51
Description: as §7, §8, §9, §10, §11

[6] = target: T2, CYP2C19 (Homo sapiens, UniProt P33261); test: Inhibition of metabolic activity by paroxetine in high-replacement chimeric mouse (marker omeprazole); type: in vivo; details: paroxetine 30 mg/kg b.w./day i.p. for 3 days, donor BD51
T2 construct: human hepatocytes were engrafted and proliferated in the mouse liver; host or cells: human donor hepatocytes BD51 engrafted in the liver of uPA(+/+)/SCID mice (high-replacement chimeric mice, PhoenixBio)
Description: as §7, §8, §9, §10, §11

[7] = uPA(−/−)/SCID, iv, t 1/2 Distribution phase
[8] = uPA(−/−)/SCID, iv, t 1/2 Elimination phase

T1 sequence (P08684 whole entry): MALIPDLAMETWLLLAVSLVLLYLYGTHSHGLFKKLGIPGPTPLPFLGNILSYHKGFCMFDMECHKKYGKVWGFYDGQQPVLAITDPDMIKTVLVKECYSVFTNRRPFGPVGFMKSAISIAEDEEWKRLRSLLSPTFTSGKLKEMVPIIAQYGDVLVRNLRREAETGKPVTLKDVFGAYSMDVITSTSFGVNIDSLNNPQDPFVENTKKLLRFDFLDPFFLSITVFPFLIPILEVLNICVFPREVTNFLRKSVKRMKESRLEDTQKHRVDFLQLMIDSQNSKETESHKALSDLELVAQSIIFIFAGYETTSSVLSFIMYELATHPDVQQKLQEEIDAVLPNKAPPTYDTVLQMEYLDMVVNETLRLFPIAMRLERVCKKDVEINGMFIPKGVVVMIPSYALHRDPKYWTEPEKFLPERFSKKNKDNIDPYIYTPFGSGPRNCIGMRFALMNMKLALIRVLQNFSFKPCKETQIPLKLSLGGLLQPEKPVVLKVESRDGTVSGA
T2 sequence (P33261 whole entry): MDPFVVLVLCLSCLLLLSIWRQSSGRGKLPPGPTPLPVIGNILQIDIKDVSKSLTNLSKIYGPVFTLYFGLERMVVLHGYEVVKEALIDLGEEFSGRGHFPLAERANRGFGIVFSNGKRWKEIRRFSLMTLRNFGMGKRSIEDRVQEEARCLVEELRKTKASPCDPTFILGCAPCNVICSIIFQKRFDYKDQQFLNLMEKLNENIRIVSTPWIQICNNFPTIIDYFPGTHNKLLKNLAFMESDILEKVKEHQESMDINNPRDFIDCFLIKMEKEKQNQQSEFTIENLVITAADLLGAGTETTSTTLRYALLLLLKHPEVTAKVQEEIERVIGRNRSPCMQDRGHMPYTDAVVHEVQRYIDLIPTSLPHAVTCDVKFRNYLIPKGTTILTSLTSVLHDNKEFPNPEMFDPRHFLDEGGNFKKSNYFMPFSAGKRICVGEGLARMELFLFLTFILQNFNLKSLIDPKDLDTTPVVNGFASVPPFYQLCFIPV
Chain of CYP1A2 (P05177 whole entry): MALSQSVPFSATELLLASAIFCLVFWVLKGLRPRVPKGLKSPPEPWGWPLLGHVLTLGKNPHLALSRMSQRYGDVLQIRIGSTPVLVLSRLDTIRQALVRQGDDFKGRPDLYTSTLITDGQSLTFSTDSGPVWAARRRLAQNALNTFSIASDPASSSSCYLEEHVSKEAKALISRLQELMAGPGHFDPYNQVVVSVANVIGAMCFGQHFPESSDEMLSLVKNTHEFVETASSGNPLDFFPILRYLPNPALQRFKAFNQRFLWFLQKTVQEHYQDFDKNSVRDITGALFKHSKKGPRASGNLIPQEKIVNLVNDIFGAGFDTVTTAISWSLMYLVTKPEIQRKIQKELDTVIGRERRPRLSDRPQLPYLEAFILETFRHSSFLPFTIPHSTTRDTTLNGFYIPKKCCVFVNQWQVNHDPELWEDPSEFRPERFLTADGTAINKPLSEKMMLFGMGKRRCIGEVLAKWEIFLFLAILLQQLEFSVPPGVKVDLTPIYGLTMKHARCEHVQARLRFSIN

| Compound | t 1/2 Distribution phase ([1]; uPA(+/+)/SCID, po) | half-life ([1]; uPA(+/+)/SCID, po, t 1/2 Distribution phase) | AUC ([1]; uPA(−/−)/SCID, iv) | half-life [1, 7] | half-life [1, 8] | AUC ([1]; uPA(−/−)/SCID, po) | bioavailability ([1]; uPA(−/−)/SCID, po) | Cmax ([1]; uPA(−/−)/SCID, po) | AUC [2] | AUC [3] | half-life ([3]; t 1/2 Distribution phase) | half-life ([3]; t 1/2 Elimination phase) | half-life ([1]; uPA(+/+)/SCID, po, t 1/2 Elimination phase) | inhibition of the metabolic activity of CYP3A4 [4] | inhibition of the metabolic activity of CYP1A2 [5] | inhibition of the metabolic activity of CYP2C19 [6] |
| --- | --- | --- | --- | --- | --- | --- | --- | --- | --- | --- | --- | --- | --- | --- | --- | --- |
| CC[C@H]1OC(=O)[C@H](C)[C@@H](O[C@H]2C[C@@](C)(OC)[C@@H](O)[C@H](C)O2)[C@H](C)[C@@H](O[C@@H]2O[C@H](C)C[C@H](N(C)C)[C@H]2O)[C@](C)(O)C[C@@H](C)C(=O)[C@H](C)[C@@H](O)[C@]1(C)O [Erythromycin, erythromycin] | 2.22^#3 hr | 4.38 h | 13800 ng·h/mL | 0.35 h | 1.1 h | 4080 ng·h/mL | 2.95% | 1000 ng/mL | 21300 ng·h/mL |  |  |  |  |  |  |  |
| COc1ccc2[nH]c([S+]([O-])Cc3ncc(C)c(OC)c3C)nc2c1 (centres unmarked) [Omeprazole, omeprazole] |  |  | 840 ng·h/mL | 0.24 h | 0.971 h | 114 ng·h/mL | 1.36% | 94 ng/mL | 322 ng·h/mL | 964 ng·h/mL | 0.3 h | 1.55 h | 1.03 h |  |  |  |
| Fc1ccc([C@@H]2CCNC[C@H]2COc2ccc3c(c2)OCO3)cc1 [paroxetine, Paroxetine] |  |  |  |  |  |  |  |  |  |  |  |  |  | inhibition | inhibition | inhibition |
